A melting point compilation (Tetko et al.)

Work on `Nc1ccc(-c2nc3ccccc3[nH]2)cc1` yielded a melting point of 218 to 222 °C.
With `CCNC(=O)N1CCc2c(cccc2-n2nnc(C(=O)O)c2C)C1` the melting point was 200 to 202 °C.
`Cc1nnc(N2CCC(=O)CC2)s1` gave a melting point of 95 to 97 °C.
Work on `NC1(C(=O)O)CCOc2ccccc21` (stereo not drawn) yielded a melting point of 239 to 241 °C.
In the case of `Cc1ccc(C(=O)NN)c(O)c1`, the melting point is reported as 173 to 175 °C.
Compound `COc1ccc(S(=O)(=O)N(C)C)cc1N` has a melting point of 192 to 194 °C.
For `CC(C)(C)c1cc(N)n(-c2ncccn2)n1`, the melting point was 194 to 196 °C.
`Cc1cccc(-c2nonc2N)c1` gave a melting point of 77 to 79 °C.
`Cc1n[nH]c(C)c1CCO` showed a melting point of 122 to 124 °C.
Work on `CNCC(O)CN1CCCC1=O` (stereo not drawn) yielded a melting point of 88 to 90 °C.
`CC(C)(C)OC(=O)Nc1cccc(CC(=O)O)c1` showed a melting point of 97 to 99 °C.
`Nc1nc(-c2ccc(O)cc2)n[nH]1` showed a melting point of 268 to 270 °C.
`CS(=O)(=O)c1ccc(C(N)=NO)cc1` showed a melting point of 196 to 198 °C.
`COc1ccc(C(N)Cc2ccc(F)cc2)cc1` (stereo not drawn) showed a melting point of 47 to 49 °C.
Compound `Cc1ccc(SCCC(=O)NN)cc1` has a melting point of 106 to 108 °C.
Compound `Cc1nn(Cc2ccccc2)c(Cl)c1CCl` has a melting point of 53 to 55 °C.
Compound `Cn1cc(C(=O)O)c(C(F)(F)F)c1` has a melting point of 205 to 207 °C.
With `O=C1NCc2ccc(F)cc21` the melting point was 203 to 205 °C.
Work on `O=C(O)c1ccnc(OCCOc2cc(C(=O)O)ccn2)c1` yielded a melting point of 269 to 271 °C.
For `O=C(O)CCCn1cccn1`, the melting point was 74 to 76 °C.
For `Cc1[nH]c(-c2ccnc(Cl)c2)nc(=O)c1C`, the melting point was 253 to 255 °C.
For `CCOC(=O)C(O)c1nccn1Cc1ccccc1` (stereo not drawn), the melting point was 134 to 136 °C.
`O=S(=O)(Nc1cccc(O)c1)c1ccccc1` showed a melting point of 127 to 129 °C.
Compound `CC(C)(C)c1ccc(C(=O)O)s1` has a melting point of 119 to 121 °C.
For `COc1cc(CCl)c(OC)cc1Br`, the melting point was 65 to 67 °C.
In the case of `Cn1ncc2cn[nH]c2c1=O`, the melting point is reported as 246 to 248 °C.
`COCC(=O)c1ccc(F)c(F)c1` gave a melting point of 39 to 41 °C.
Work on `O=C1CSC(=S)N1c1ccc(F)cc1` yielded a melting point of 137 to 139 °C.
For `Cn1cccc1C(=O)NN`, the melting point was 113 to 115 °C.
With `O=C1Nc2cc(I)ccc2C1=O` the melting point was 264 to 266 °C.
With `CN(C)C(=O)Cn1cc(Br)cn1` the melting point was 163 to 165 °C.
Compound `CC(C)c1ccc(C=CCC(=O)O)cc1` has a melting point of 49 to 51 °C.
`CC(=O)NCCNCc1ccccc1` showed a melting point of 51 to 53 °C.
With `NS(=O)(=O)c1ccc(Br)cn1` the melting point was 170 to 172 °C.
Work on `CC(C)(C)OC(=O)Nc1ccccc1N` yielded a melting point of 105 to 107 °C.
`O=C(O)c1ccc(CCC(F)(F)F)cc1` gave a melting point of 211 to 213 °C.
In the case of `COC(=O)c1ncccc1F`, the melting point is reported as 81 to 83 °C.
`CC(C)=C(C)C(=O)O` gave a melting point of 68 to 70 °C.
Work on `COc1cc(-c2noc(CCl)n2)ccc1C` yielded a melting point of 73 to 75 °C.
In the case of `O=C1CCc2c(F)cccc21`, the melting point is reported as 71 to 73 °C.
For `COc1ccc(Br)cc1Cl`, the melting point was 69 to 71 °C.
For `Nc1ccc(N2CCNC(=O)C2)cc1`, the melting point was 167 to 169 °C.
Compound `NC(=O)c1ccc(=O)[nH]n1` has a melting point of 326 to 328 °C.
With `CCCC1(c2ccccc2)NC(=O)NC1=O` (stereo not drawn) the melting point was 172 to 174 °C.
Compound `CN(C)C(=O)Sc1cccc(CCl)c1` has a melting point of 44 to 46 °C.
Work on `COc1ccccc1NS(=O)(=O)c1cc(N)ccc1N1CCCC1` yielded a melting point of 159 to 161 °C.
Work on `Cc1nn2c(CO)c(C(C)C)nc2s1` yielded a melting point of 119 to 121 °C.
`NC(=O)COc1ccc(O)cc1` showed a melting point of 154 to 156 °C.
With `CC(C)c1cc(C(=O)O)nn1-c1ccccc1` the melting point was 137 to 139 °C.
With `Nc1ccnn1Cc1ccc(Br)cc1` the melting point was 97 to 99 °C.
In the case of `O=Cc1ccc(C(=O)O)cc1Cl`, the melting point is reported as 218 to 220 °C.
For `O=C(CCl)Nc1cc([N+](=O)[O-])ccc1F`, the melting point was 125 to 127 °C.
Work on `Cc1ccc(-c2cc(C(=O)NN)c3ccccc3n2)cc1` yielded a melting point of 85 to 90 °C.
Work on `Cn1cc(-c2cccc(N)n2)cn1` yielded a melting point of 132 to 134 °C.
Compound `O=C(Nc1ccc(Cl)cn1)C1CCNCC1` has a melting point of 137 to 139 °C.
`CCn1c(S)nnc1-c1ccc(Cl)cc1` gave a melting point of 211 to 213 °C.
For `NS(=O)(=O)c1ccc(C(=O)O)cn1`, the melting point was 219 to 221 °C.
`Cc1c(C)n(-c2ccc(Cl)cc2)c2ncnc(N)c12` showed a melting point of 249 to 251 °C.
In the case of `COC(=O)C(=CN(C)C)C(C)=O`, the melting point is reported as 47 to 49 °C.
With `O=C(Nc1ccccc1F)C1CSCN1` (stereo not drawn) the melting point was 97 to 99 °C.
For `COC(=O)c1ccc(-n2c(C)cc(C(=O)CCl)c2C)cc1`, the melting point was 157 to 159 °C.
Work on `NC(=O)Cc1ccc(F)cc1` yielded a melting point of 155 to 157 °C.
Compound `CC(=O)CN1C(=O)COCC1=O` has a melting point of 77 to 79 °C.
Work on `Nc1cc(CCc2ccco2)no1` yielded a melting point of 67 to 69 °C.
`NC(=S)NC1CCOc2ccccc21` (stereo not drawn) showed a melting point of 178 to 180 °C.
With `Cn1cc(CO)nn1` the melting point was 29 to 31 °C.
`CCOc1ccc(-c2csc(=O)[nH]2)cc1` showed a melting point of 222 to 224 °C.
Work on `CC(C)N(C)S(=O)(=O)c1ccc(F)c(C(=O)O)c1` yielded a melting point of 194 to 196 °C.
Work on `COc1ccccc1-c1cccc(N)c1` yielded a melting point of 66 to 68 °C.
`NCCC(=O)N1CCN(c2ccccn2)CC1` showed a melting point of 76 to 78 °C.
Compound `O=C(O)c1cc2c(OC(F)F)cccc2[nH]1` has a melting point of 215 to 217 °C.
For `COC(=O)c1cc2c(Br)ccc(F)c2[nH]1`, the melting point was 189 to 191 °C.
In the case of `CCOCCNC(=O)c1ccc(Br)cc1`, the melting point is reported as 99 to 101 °C.
